Patent US8614223B2, “Pyrimidine hydroxy amide compounds as protein deacetylase inhibitors and methods of use thereof” (Acetylon Pharmaceuticals, Inc., priority 2010, dated 2013)
Read-outs that look alike come from different tables or passages of the source.

Tests used:
[1] = test system: refractory relapsed MM; conditions: 202 patients with refractory relapsed MM; cited from earlier work
[2] = target: HDAC3 (Homo sapiens (Human), UniProt O15379); assay: HDAC enzyme assay, HDAC3; conditions: for HDAC3 fold over HDAC6 IC50 (selectivity for HDAC6): ratio HDAC3/HDAC6
[3] = target: HDAC1 (Homo sapiens (Human), UniProt Q13547); assay: HDAC enzyme assay, HDAC1; conditions: for HDAC1 fold over HDAC6 IC50 (selectivity for HDAC6): ratio HDAC1/HDAC6
[4] = target: HDAC2 (Homo sapiens (Human), UniProt Q92769); assay: HDAC enzyme assay, HDAC2; conditions: for HDAC2 fold over HDAC6 IC50 (selectivity for HDAC6): ratio HDAC2/HDAC6
[5] = target: T1, HDAC6 (Homo sapiens (Human), UniProt Q9UBN7); assay: biochemical
[6] = target: T1, HDAC6; conditions: read-out: HDAC6 IC50

Chain of HDAC2 (Q92769 whole entry): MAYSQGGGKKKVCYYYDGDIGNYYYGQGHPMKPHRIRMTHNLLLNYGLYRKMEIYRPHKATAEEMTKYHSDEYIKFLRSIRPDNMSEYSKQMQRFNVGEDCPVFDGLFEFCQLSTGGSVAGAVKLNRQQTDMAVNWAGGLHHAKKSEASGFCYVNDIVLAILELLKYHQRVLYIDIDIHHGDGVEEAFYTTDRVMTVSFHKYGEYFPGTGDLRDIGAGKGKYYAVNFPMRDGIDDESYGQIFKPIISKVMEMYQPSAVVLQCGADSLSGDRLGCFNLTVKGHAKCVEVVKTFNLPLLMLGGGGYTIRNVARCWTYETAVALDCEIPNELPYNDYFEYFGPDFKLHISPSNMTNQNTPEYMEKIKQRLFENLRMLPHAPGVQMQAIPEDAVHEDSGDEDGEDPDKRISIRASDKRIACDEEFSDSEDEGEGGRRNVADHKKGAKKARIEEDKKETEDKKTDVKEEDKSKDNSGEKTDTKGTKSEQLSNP
Chain of HDAC1 (Q13547 whole entry): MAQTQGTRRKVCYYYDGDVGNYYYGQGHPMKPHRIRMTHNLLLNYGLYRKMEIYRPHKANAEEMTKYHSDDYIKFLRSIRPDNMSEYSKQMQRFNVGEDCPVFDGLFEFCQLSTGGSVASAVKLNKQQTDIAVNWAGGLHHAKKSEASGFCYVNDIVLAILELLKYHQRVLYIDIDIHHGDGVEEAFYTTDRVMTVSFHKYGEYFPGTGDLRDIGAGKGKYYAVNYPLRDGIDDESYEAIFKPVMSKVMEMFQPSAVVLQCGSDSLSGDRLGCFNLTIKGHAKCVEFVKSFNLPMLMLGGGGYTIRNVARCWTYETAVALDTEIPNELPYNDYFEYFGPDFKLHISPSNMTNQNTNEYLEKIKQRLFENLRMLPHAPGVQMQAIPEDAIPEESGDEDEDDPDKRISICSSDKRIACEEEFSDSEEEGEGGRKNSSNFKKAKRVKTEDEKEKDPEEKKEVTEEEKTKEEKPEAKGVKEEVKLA
Chain of HDAC3 (O15379 whole entry): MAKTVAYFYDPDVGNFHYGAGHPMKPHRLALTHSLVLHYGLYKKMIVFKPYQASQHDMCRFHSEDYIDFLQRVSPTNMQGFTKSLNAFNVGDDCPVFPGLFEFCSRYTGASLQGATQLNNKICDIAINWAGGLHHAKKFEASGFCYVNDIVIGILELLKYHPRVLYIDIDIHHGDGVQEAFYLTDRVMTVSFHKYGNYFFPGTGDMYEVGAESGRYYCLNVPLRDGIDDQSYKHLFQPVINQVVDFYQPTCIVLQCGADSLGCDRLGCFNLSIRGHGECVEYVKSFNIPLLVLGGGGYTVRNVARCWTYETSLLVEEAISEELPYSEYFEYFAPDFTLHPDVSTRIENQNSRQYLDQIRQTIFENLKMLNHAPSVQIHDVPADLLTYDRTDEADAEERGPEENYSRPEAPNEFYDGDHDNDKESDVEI
Chain of HDAC3 (Q9Y618 395-489 partner): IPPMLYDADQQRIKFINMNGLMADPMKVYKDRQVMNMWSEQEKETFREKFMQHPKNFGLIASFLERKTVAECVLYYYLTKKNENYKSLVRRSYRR
T1 sequence (Q9UBN7 whole entry): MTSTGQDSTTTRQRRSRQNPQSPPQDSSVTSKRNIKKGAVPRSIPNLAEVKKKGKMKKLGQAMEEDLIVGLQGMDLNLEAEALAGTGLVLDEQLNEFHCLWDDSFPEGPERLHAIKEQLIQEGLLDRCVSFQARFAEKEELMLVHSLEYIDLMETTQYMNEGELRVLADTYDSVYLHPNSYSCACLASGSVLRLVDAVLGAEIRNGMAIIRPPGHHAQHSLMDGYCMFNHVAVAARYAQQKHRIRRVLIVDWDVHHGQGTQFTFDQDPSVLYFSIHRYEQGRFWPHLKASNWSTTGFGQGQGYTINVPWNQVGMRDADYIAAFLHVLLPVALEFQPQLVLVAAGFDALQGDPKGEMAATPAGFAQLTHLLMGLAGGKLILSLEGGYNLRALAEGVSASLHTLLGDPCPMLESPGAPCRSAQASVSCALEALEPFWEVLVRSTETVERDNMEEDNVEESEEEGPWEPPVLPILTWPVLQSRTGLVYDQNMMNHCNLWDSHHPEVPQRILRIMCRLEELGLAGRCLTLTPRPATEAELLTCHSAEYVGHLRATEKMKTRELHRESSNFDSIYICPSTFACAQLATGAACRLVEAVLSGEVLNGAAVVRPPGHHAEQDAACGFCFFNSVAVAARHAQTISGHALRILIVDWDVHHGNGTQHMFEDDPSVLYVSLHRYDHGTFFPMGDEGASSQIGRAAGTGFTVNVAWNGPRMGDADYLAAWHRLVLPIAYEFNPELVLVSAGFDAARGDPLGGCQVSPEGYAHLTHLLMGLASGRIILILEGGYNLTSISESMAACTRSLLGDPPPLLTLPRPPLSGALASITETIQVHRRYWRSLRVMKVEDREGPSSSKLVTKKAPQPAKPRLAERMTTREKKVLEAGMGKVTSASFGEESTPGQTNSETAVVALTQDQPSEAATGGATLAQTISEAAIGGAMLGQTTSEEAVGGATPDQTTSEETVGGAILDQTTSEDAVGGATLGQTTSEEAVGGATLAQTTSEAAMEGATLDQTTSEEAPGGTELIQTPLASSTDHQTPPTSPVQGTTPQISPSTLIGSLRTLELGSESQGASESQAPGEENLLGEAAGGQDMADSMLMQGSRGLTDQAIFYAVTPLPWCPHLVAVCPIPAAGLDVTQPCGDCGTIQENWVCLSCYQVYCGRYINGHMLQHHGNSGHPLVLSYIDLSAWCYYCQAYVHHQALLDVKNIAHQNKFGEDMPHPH

| IC50 [2] [nM] | HDAC3 fold over HDAC6 IC50 (selectivity for HDAC6) [2] | IC50 [3] [nM] | HDAC1 fold over HDAC6 IC50 (selectivity for HDAC6) [3] | IC50 [4] [nM] | HDAC2 fold over HDAC6 IC50 (selectivity for HDAC6) [4] | IC50 [5] [nM] | IC50 ([2]; read-out: HDAC3 IC50) [nM] | IC50 ([3]; read-out: HDAC1 IC50) [nM] | IC50 [6] [nM] | IC50 ([4]; read-out: HDAC2 IC50) [nM] | SMILES | complete and near complete responses [1] [%] | patients did not respond [1] [%] | responses [1] [%] |
| --- | --- | --- | --- | --- | --- | --- | --- | --- | --- | --- | --- | --- | --- | --- |
| – | – | – | – | – | – | – | – | – | – | – | CC(C)C[C@H](NC(=O)[C@H](Cc1ccccc1)NC(=O)c1cnccn1)B(O)O [bortezomib] | 10 | 65 | 35 |
| 37 | (16.4x) | 19 | (8.3x) | 28 | (12.1x) | 2 | – | – | – | – | COc1ccc(C2(Nc3ncc(C(=O)NO)cn3)CC2)cc1 [Compound 97] | – | – | – |
| – | (84.7x) | – | (34.5x) | – | (39.9x) | – | 3460 | 1410 | 41 | 1630 | CC1(Nc2ncc(C(=O)NO)cn2)CCCCC1 [Compound 110] | – | – | – |
| – | (86.7x) | – | (56.4x) | – | (116.2x) | – | 169 | 110 | 2 | 226 | O=C(NO)c1cnc(NCc2ccccc2Cl)nc1 [Compound 33] | – | – | – |
| – | (656.2x) | – | (306.9x) | – | (427.2x) | – | 12300 | 5750 | 19 | 8010 | Cc1cc(F)ccc1C(C)(C)Nc1ncc(C(=O)NO)cn1 [Compound 72] | – | – | – |
| – | (134.3x) | – | (102.2x) | – | (100.8x) | – | 1850 | 1410 | 14 | 1390 | O=C(NO)c1cnc(Nc2cc(C(F)(F)F)cc(C(F)(F)F)c2)nc1 [Compound 15] | – | – | – |
| – | (54x) | – | (18.2x) | – | (20.9x) | – | 189 | 64 | 3 | 73 | Cc1cc(C(F)(F)F)cc(C2(Nc3ncc(C(=O)NO)cn3)CC2)c1 [Compound 147] | – | – | – |
| – | (51.8x) | – | (22.4x) | – | (17.7x) | – | 344 | 149 | 7 | 118 | O=C(NO)c1cnc(NC2(c3ccc(C(F)(F)F)cc3)CC2)nc1 [Compound 135] | – | – | – |
| – | (184x) | – | (90.9x) | – | (112.8x) | – | 782 | 386 | 4 | 479 | COc1ccc(Cl)cc1C1(Nc2ncc(C(=O)NO)cn2)CC1 [Compound 139] | – | – | – |
| – | (36.6x) | – | (12.7x) | – | (15.4x) | – | 124 | 43 | 3 | 52 | COc1cc(OC)cc(C2(Nc3ncc(C(=O)NO)cn3)CC2)c1 [Compound 129] | – | – | – |
| – | (53.9x) | – | (48.8x) | – | (80.8x) | – | 401 | 363 | 7 | 601 | O=C(NO)c1cnc(NCc2c(Cl)cccc2Cl)nc1 [Compound 48] | – | – | – |
| – | (100.3x) | – | (40.4x) | – | (60.2x) | – | 212 | 85 | 2 | 127 | CC(C)(Nc1ncc(C(=O)NO)cn1)c1ccc(Cl)c(Cl)c1 [Compound 80] | – | – | – |
| – | (143.4x) | – | (106.9x) | – | (148.5x) | – | 506 | 377 | 4 | 523 | COc1ccccc1CNc1ncc(C(=O)NO)cn1 [Compound 45] | – | – | – |
| – | (221.2x) | – | (60.3x) | – | (98.9x) | – | 2890 | 788 | 13 | 1290 | CC(C)(Nc1ncc(C(=O)NO)cn1)c1ccc(C(F)(F)F)cc1F [Compound 86] | – | – | – |
| – | (93.7x) | – | (77.6x) | – | (96.5x) | – | 1750 | 1440 | 19 | 1800 | O=C(NO)c1cnc(NCCc2c(Cl)cccc2Cl)nc1 [Compound 63] | – | – | – |
| – | (42.6x) | – | (32.6x) | – | (62.5x) | – | 430 | 329 | 10 | 631 | O=C(NO)c1cnc(Nc2ccc([N+](=O)[O-])c(C(F)(F)F)c2)nc1 [Compound 10] | – | – | – |
| – | (414.9x) | – | (176.6x) | – | (143.8x) | – | 1370 | 584 | 3 | 476 | O=C(NO)c1cnc(NC2(c3cccc(F)c3)CCCC2)nc1 [Compound 151] | – | – | – |
| – | (13.9x) | – | (6.2x) | – | (6x) | – | 113 | 50 | 8 | 49 | COc1ccc(C2(Nc3ncc(C(=O)NO)cn3)CC2)cc1OC [Compound 138] | – | – | – |
| – | (113.5x) | – | (63.5x) | – | (106.6x) | – | 745 | 417 | 7 | 700 | O=C(NO)c1cnc(Nc2cc(Cl)cc(OC(F)(F)F)c2)nc1 [Compound 27] | – | – | – |
| – | (25.7x) | – | (15.5x) | – | (21.5x) | – | 34 | 20 | 1 | 28 | O=C(NO)c1cnc(NCc2cccc(Cl)c2)nc1 [Compound 34] | – | – | – |
| – | (32.3x) | – | (19.5x) | – | (24.1x) | – | 130 | 78 | 4 | 97 | O=C(NO)c1cnc(NCCc2cccc(Cl)c2)nc1 [Compound 42] | – | – | – |
| – | (147.4x) | – | (86x) | – | (116.6x) | – | 901 | 526 | 6 | 713 | O=C(NO)c1cnc(NCc2ccc(F)cc2C(F)(F)F)nc1 [Compound 57] | – | – | – |
| – | (11x) | – | (3x) | – | (4x) | – | 64 | 17 | 6 | 23 | Cc1cc(C2(Nc3ncc(C(=O)NO)cn3)CC2)ccc1F [Compound 142] | – | – | – |
